We go through 1 compound from US5696231A, “N-substituted glycine derivatives as enzyme inhibitors” (Corvas International, Inc., priority 1994, dated 1997).

Experiment [1] has as its system pooled normal human plasma. Kind of experiment: Prothrombin time (PT) assay in citrated human plasma. It is filed as biochemical. To be noted: control clotting time 13 seconds, mean of two independent determinations. The text has this: (§1) FIG. 2 depicts the anticoagulant effect of (D)-camphorsulfonyl aspartyl sarcosine arginine aldehyde measured in citrated human plasma using the activated partial thromboplastin time (APTT) assay, closed circles (1), and prothrombin time (PT) assay, open triangles (D). The control clotting times (0 inhibitor) for the APTT and PT assays in human plasma were 29 seconds and 13 seconds, respectively. The concentration of (D)-camphorsulfonyl aspartyl sarcosine arginine aldehyde which caused a doubling of the control clotting times in the APTT and PT assays were 54 micromolar and 298 micromolar, respectively. The data is the mean of two independent determinations.
(§2) The ex vivo anticoagulant effect of a compound of the present invention, (D)-camphorsulfonyl aspartyl sarcosine arginine aldehyde (Example 56), was determined by measuring the prolongation of the activated partial thromboplastin time (APTT) and prothrombin time (PT) over a broad concentration range of the added inhibitor, using pooled normal human plasma.
(§3) Fresh frozen citrated pooled normal human plasma was obtained from George King Biomedical, Overland Park, Kansa. […]

In experiment [2] the test system is pooled normal human plasma. The experiment is described as follows: Activated partial thromboplastin time (APTT) assay in citrated human plasma. It is filed as biochemical.
Description: as §1, §2, §3

Turning to `CN(CC(=O)N[C@H](C=O)CCCN=C(N)N)C(=O)[C@H](CC(=O)O)NS(=O)(=O)C[C@]12CC[C@H](CC1=O)C2(C)C` [(D)-camphorsulfonyl aspartyl sarcosine arginine aldehyde], the “concentration which caused a doubling of the control clotting time in the PT assay” value in experiment [1] amounted to 298 µM. The “concentration which caused a doubling of the control clotting time in the APTT assay” value in experiment [2] (citrated human plasma, control clotting time 29 seconds, mean of two independent determinations) turned out to be 54 µM. In addition, the “prolongation of the APTT” value in experiment [2] (human plasma, broad concentration range of added inhibitor (FIG. 2)) is “prolonged the APTT in a dose dependent manner”.
